Assay results reported in PubChem BioAssay AID651630 (Sanford-Burnham Center for Chemical Genomics, 2012).
The source made the active and inactive calls.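 Rule for the calls: active = lipid-stain IC50 at or below a set limit, with nuclear-stain toxicity IC50 at least five times higher; inactive = the rest.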

Experiments:
TAG = TAG lipid buildup inhibition with viability readout – cell-based, panel, Nile Red and DAPI fluorescence, H9c2, dose response (AID 651630); conditions: H9c2 cells, Nile Red TAG fluorescence, oleic acid;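 note: cells exposed to compound overnight before fixation and staining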
DAPI = assay: as above; conditions: H9c2 cells, DAPI nuclear fluorescence (cytotoxicity counter-readout), oleic acid

| Compound | IC50 (TAG; mean of runs) | IC50 (TAG; run 1) [µM] | IC50 (TAG; run 2) [µM] | IC50 cytotoxicity (DAPI nuclear signal decrease) (DAPI; mean of runs) | IC50 cytotoxicity (DAPI nuclear signal decrease) (DAPI; run 1) [µM] | IC50 cytotoxicity (DAPI nuclear signal decrease) (DAPI; run 2) [µM] |
| --- | --- | --- | --- | --- | --- | --- |
| O=C(Nc1cccc2ncccc12)c1ccc(Cl)cc1 | 6.22 µM | 6.27 | 6.17 | > 25 µM (inactive) | > 25 | > 25 |
| CCC1=Nc2cc(C(=O)NCCCOC)ccc2Sc2ccccc21 | > 25 µM (inactive) | > 25 | > 25 | > 25 µM (inactive) | > 25 | > 25 |
| c1ccc(N(c2ccccc2)c2nc(N3CCCC3)nc(-n3ccnc3)n2)cc1 | 17.7 µM (inactive) | 19.1 | 16.3 | > 25 µM (inactive) | > 25 | > 25 |
| CC(C)N(C(=O)[C@H]1C[C@H](CC(=O)NCc2cccc(C(F)(F)F)c2)C(=O)N2CCc3c([nH]c4ccc(Cl)cc34)[C@]12C)C(C)C | 10.6 µM | 9.86 | 11.4 | > 25 µM (inactive) | > 25 | > 25 |
| CCN(CC)CCNc1nc2cc(OC)c(OC)cc2c2nc(-c3ccccc3)nn12 | > 25 µM (inactive) | > 25 | > 25 | > 25 µM (inactive) | > 25 | > 25 |
| CCOc1ccc(C(=O)Nc2nnc(NC(=S)Nc3ccccc3)s2)cc1 |  | > 25 | 23 | > 25 µM (inactive) | > 25 | > 25 |
| CC(C)=CCNc1ncnc2c1c(C#N)cn2C1OC(CO)C(O)C1O (stereo not drawn) | > 25 µM (inactive) | > 25 | > 25 | > 25 µM (inactive) | > 25 | > 25 |
| CCOc1c(Br)cc(CNC2CCCCCCC2)cc1OC | > 25 µM (inactive) | > 25 | > 25 | 19.7 µM (inactive) | 18.8 | 20.6 |
| O=C1Nc2ccc(Br)cc2/C1=N\N=C\C1=C(N2CCOCC2)C(=C/c2ccccc2)/CC1 | 0.891 µM | 0.828 | 0.954 |  | > 25 | > 25 |
| COc1ccc(/C=C2/CCCc3ccccc3C2=O)cc1 | > 25 µM (inactive) | > 25 | > 25 | > 25 µM (inactive) | > 25 | > 25 |
| CCCC1O[C@@H]2C[C@H]3[C@@H]4CCC5=CC(=O)C=C[C@]5(C)[C@H]4[C@@H](O)C[C@]3(C)[C@]2(C(=O)CO)O1 (stereo partly drawn) | 3.49 µM | 3.52 | 3.46 |  | > 25 | > 25 |
| CC1(C(=O)Nc2cccc(Oc3ccccc3)c2)Cc2c(-c3ccc4c(c3)OCO4)ccnc2O1 (stereo not drawn) | > 25 µM (inactive) | > 25 | > 25 | > 25 µM (inactive) | > 25 | > 25 |
| CC(C)(C)OC(=O)N(CCc1ccccc1)Cc1ccc(OCc2cccc(NC(=O)/C=C/c3ccccc3)c2)cc1 | 7.63 µM | 7.99 | 7.28 | > 25 µM (inactive) | > 25 | > 25 |
| CCOCCC(=O)Nc1ccc2c(c1)c(=O)n(C)n2C/C=C/c1ccccc1 | > 25 µM (inactive) | > 25 | > 25 | > 25 µM (inactive) | > 25 | > 25 |
| Cn1nnc2c[n+](CC(=O)c3ccc(Cl)cc3)cc(Br)c21 | 13.5 µM | 13.9 | 13.2 | 21.5 µM (inactive) | 20.9 | 22.1 |
| COc1ccc(NC(=O)C2(C)Cc3c(-c4cccc(C(N)=O)c4)ccnc3O2)cn1 (stereo not drawn) | 18.5 µM (inactive) | 18 | 18.9 | > 25 µM (inactive) | > 25 | > 25 |
| CCC(C)(C)C1CCC2(CC1)NC(=O)N(CC(=O)NCCc1ccc(OC)c(OC)c1)C2=O (stereo not drawn) | 3.29 µM | 1.91 | 4.67 |  | > 25 | > 25 |

| Compound | IC50 (TAG; mean of runs) | IC50 (TAG; run 1) [µM] | IC50 (TAG; run 2) [µM] | IC50 cytotoxicity (DAPI nuclear signal decrease) (DAPI; mean of runs) | IC50 cytotoxicity (DAPI nuclear signal decrease) (DAPI; run 1) [µM] | IC50 cytotoxicity (DAPI nuclear signal decrease) (DAPI; run 2) [µM] |
| --- | --- | --- | --- | --- | --- | --- |
| Cc1nc(N/N=C/c2cccc(F)c2)cc(N2CCOCC2)n1 | 13.8 µM | 10.9 | 16.6 | > 25 µM (inactive) | > 25 | > 25 |
| CCC(C)(C)NC(=O)C(c1ccc(C)cc1)N(Cc1ccco1)C(=O)CCC(=O)Nc1nccs1 (stereo not drawn) | 6.82 µM | 4.82 | 8.81 | > 25 µM (inactive) | > 25 | > 25 |
| COc1cc2nc(NCCCN3CCN(C)CC3)n3nc(-c4ccccc4)nc3c2cc1OC | > 25 µM (inactive) | > 25 | > 25 | > 25 µM (inactive) | > 25 | > 25 |
| CCOC(=O)/C(=N\Nc1ccc(Cl)cc1)c1csc(Nc2ccccc2)n1 | 6.51 µM | 6.29 | 6.72 | 22.5 µM (inactive) | 20.6 | 24.4 |
| CCOc1ccccc1NC(=O)C1CCN(C(=O)NCc2ccccc2)CC1 | > 25 µM (inactive) | > 25 | > 25 | > 25 µM (inactive) | > 25 | > 25 |
| COc1cc(NC(=O)c2ccco2)c(OC)cc1NC(=O)CCC(=O)Nc1cccc(C)c1C |  | > 25 | 22.3 | > 25 µM (inactive) | > 25 | > 25 |
| CCCCOc1ccc(CSC2=NCCN2)cc1[N+](=O)[O-] | > 25 µM (inactive) | > 25 | > 25 | > 25 µM (inactive) | > 25 | > 25 |
| Cc1cc(Nc2ccc(C)c(Cl)c2)nc(N2CCOCC2)n1 | > 25 µM (inactive) | > 25 | > 25 | > 25 µM (inactive) | > 25 | > 25 |
| Cc1onc(-c2ccc(Cl)cc2Cl)c1-c1csc(N/N=C/c2ccccc2)n1 | > 25 µM (inactive) | > 25 | > 25 | > 25 µM (inactive) | > 25 | > 25 |
| O=C(/C=C/c1ccc(OCCCF)cc1)NCc1ccc(Cl)c(Cl)c1 |  | > 25 | 21.3 | > 25 µM (inactive) | > 25 | > 25 |
| CCN(CC)CCNc1nc(-n2nc(C)cc2C)nc2sc3c(c12)CC(C)(C)OC3 | 19.4 µM (inactive) | 16.3 | 22.6 | > 25 µM (inactive) | > 25 | > 25 |
| Nc1c(Cl)cc(-c2csc(N3CCCC3c3nc4cc(Cl)c(N5CCCCC5)cc4n3CCOCCO)n2)cc1Cl (stereo not drawn) | 11.4 µM | 11.6 | 11.1 | > 25 µM (inactive) | > 25 | > 25 |
| COc1cc(C#Cc2c(-c3cncn3C)n(C)c3ccc(-c4ccc5cc[nH]c5c4)cc23)cc(OC)c1 | 11.7 µM | 12.1 | 11.3 | > 25 µM (inactive) | > 25 | > 25 |
| COc1cc(CNC(=O)Nc2nc(C(N)Cc3ccc(C(F)(F)F)cc3)cs2)cc(OC)c1OC (stereo not drawn) | 8.38 µM | 8.1 | 8.66 | > 25 µM (inactive) | > 25 | > 25 |
| CN(C)CCCN1c2ccccc2Sc2ccccc21 | > 25 µM (inactive) | > 25 | > 25 | > 25 µM (inactive) | > 25 | > 25 |
| COc1cc(/C=C2/NC(=O)N(Cc3ccccc3F)C2=O)ccc1O | > 25 µM (inactive) | > 25 | > 25 | > 25 µM (inactive) | > 25 | > 25 |
| CN(C)CCCNC(=O)CC1C[C@H](C(=O)N2CCCCC2)[C@@]2(CCc3ccccc3)c3[nH]c4ccccc4c3CCN2C1=O (stereo partly drawn) | 20 µM (inactive) | 23.2 | 16.8 | > 25 µM (inactive) | > 25 | > 25 |
